# Experimental data as given in US11369593B2 (Texas Tech University System, priority 2017, dated 2022).
# Tests used:
# Assay type in all cases: cell-based
# [1] = tested on: PC12 cells; test: Serum starvation-induced apoptosis in PC12 cells, cell viability; details: for viability at 1 µM / viability at 3 µM / viability at 10 µM / viability at 30 µM: Rattus norvegicus
# [2] = tested on: PC12 cells; test: Etoposide-induced apoptosis in PC12 cells, cell viability; details: for viability at 1 µM / viability at 3 µM / viability at 10 µM / viability at 30 µM: Rattus norvegicus; for protective activity in WT PC12 etoposide assay: WT PC12 cells; for % Viability 0.1 μM: 0.1 μM compound, vehicle 52.1 ± 7.32; for % Viability 0.3 μM: 0.3 μM compound
# [3] = tested on: CLN3 siRNA knock down PC12 cells; test: Protective effect in siRNA CLN3 knock down PC12 cells; details: FIG. 3A
# Excerpt: (§1) FIGS. 3A and 3B show the neuroprotective effect of selected compounds in phenotypic cell lines. In FIG. 3A, the protective effect is shown in siRNA CLN3 knock down PC12 cells. In FIG. 3B the protective effect is shown in wild-type (WT) and CLN3 knock down mouse fibroblasts. Values are represented as mean±SD. *P<0.05, **p<0.01, ***p<0.001 compared to vehicle control, unpaired student t test.
# (§2) Protective Effect in Phenotypic Cell Lines. […] The inventors screened a number of compounds in both neuron-like CLN3 siRNA knock down PC12 cells (FIG. 3A) and CLN3 knockdown mouse fibroblasts (FIG. 3B) as phenotypic models of JNCL. […] FIGS. 3A and 3B show the neuroprotective effect of selected compounds in phenotypic cell lines. In FIG. 3A, the protective effect is shown in siRNA CLN3 knock down PC12 cells. In FIG. 3B the protective effect is shown in wild-type (WT) and CLN3 knock down mouse fibroblasts. Values are represented as mean±SD. *P<0.05, **p<0.01, ***p<0.001 compared to vehicle control, unpaired student t test. […] Selected derivatives show greater protective effect than flupirtine in patient lympoblast cells in CLN1, CLN2, CLN3, CLN6 and CLN8 disease (FIGS. 4A to 4E). FIGS. 4A to 4E show the percentage of patient lymphoblast cells (%), using Trypan Blue dye with Flupirtine (20 μM, vehicle %1 EtOH), drug 3 (20 μM, vehicle %1 EtOH), drug 5 (50 μM, vehicle %4 DMSO) or drug 6 (20 μM, vehicle %4 DMSO) at 24 h. CLN1 (FIG. 4A), CLN2 (FIG. 4B), CLN3 (FIG. 4C), CLN6 (FIG. 4D), and CLN8 (FIG. 4E).
# [4] = tested on: CLN3 knockdown mouse fibroblasts; test: Protective effect in CLN3 knock down mouse fibroblasts; details: FIG. 3B
# Excerpt: as §1, §2
# [5] = tested on: PC12 cells; test: ROS in PC12 cells, CellROX green / DAPI staining after H2O2; details: 400 μM H2O2 for 4 hours, FIG. 5A
# Description: PC12 cells stained with CellROX and DAPI-blue nuclear stain. Greater intensity of green fluorescence indicates greater levels of ROS. Visualized through a microscope (40× magnification, bar=100 μM).
# While flupirtine and retigabine are known antioxidants the inventors have shown (FIGS. 5A and 5B) that neuroprotective derivatives operate by a different mechanism of action. […] PC12 cells stained with CellROX and DAPI-blue nuclear stain. Greater intensity of green fluorescence indicates greater levels of ROS. Visualized through a microscope (40× magnification, bar=100 μM).
# [6] = 1 μM compound, etoposide-induced apoptosis, PC12 cells
# [7] = 3 μM compound, etoposide-induced apoptosis, PC12 cells
# [8] = 10 μM compound, etoposide-induced apoptosis, PC12 cells
# [9] = 30 μM compound, etoposide-induced apoptosis, PC12 cells
# [10] = PC-12, 1 μM compound, serum starvation-induced apoptosis, PC12 cells, vehicle 55.04 ± 8.99, read-out: % Viability 1 μM
# [11] = PC-12, 3 μM compound, serum starvation-induced apoptosis, PC12 cells, read-out: % Viability 3 μM
# [12] = PC-12, 10 μM compound, serum starvation-induced apoptosis, PC12 cells, read-out: % Viability 10 μM
# [13] = PC-12, 30 μM compound, serum starvation-induced apoptosis, PC12 cells, read-out: % Viability 30 μM
# [14] = PC-12, 1 μM compound, etoposide-induced apoptosis, PC12 cells, read-out: % Viability 1 μM
# [15] = PC-12, 3 μM compound, etoposide-induced apoptosis, PC12 cells, read-out: % Viability 3 μM
# [16] = PC-12, 10 μM compound, etoposide-induced apoptosis, PC12 cells, read-out: % Viability 10 μM
# [17] = PC-12, 30 μM compound, etoposide-induced apoptosis, PC12 cells, read-out: % Viability 30 μM
# [18] = PC-12, read-out: % Viability 1 μM
# [19] = PC-12, read-out: % Viability 3 μM
# [20] = PC-12, read-out: % Viability 10 μM
# [21] = PC-12, read-out: % Viability 30 μM
# [22] = etoposide-induced apoptosis, PC12 cells
Compound,"viability at 1 µM [1, 10]","viability at 3 µM [1, 11]","viability at 10 µM [1, 12]","viability at 30 µM [1, 13]","viability at 1 µM [2, 14]","viability at 3 µM [2, 15]","viability at 10 µM [2, 16]","viability at 30 µM [2, 17]",further results
2-chloroethyl 6-(4-fluorobenzylamino)-2-aminopyridin-3-ylcarbamate [NK-23-1],,,,,,,,,"% Viability 1 μM ([1]; 1 μM compound, serum starvation-induced apoptosis, PC12 cells, vehicle 55.04 ± 8.99): 84.07 ± 11.85%; % Viability 3 μM ([1]; 3 μM compound, serum starvation-induced apoptosis, PC12 cells): 83.62 ± 5.88%; % Viability 10 μM ([1]; 10 μM compound, serum starvation-induced apoptosis, PC12 cells): 100.15 ± 15.84%; % Viability 30 μM ([1]; 30 μM compound, serum starvation-induced apoptosis, PC12 cells): 106.47 ± 15.46%; % Viability 1 μM [2, 6]: 54.01 ± 13.43%; % Viability 3 μM [2, 7]: 53.92 ± 6.37%; % Viability 10 μM [2, 8]: 41.79 ± 4.38%; % Viability 30 μM [2, 9]: 40.77 ± 6.98%"
C=CCOC(=O)Nc1ccc(NCc2ccc(Cl)cc2)nc1N [JG-4-5],72.3 ± 1.45%,95.2 ± 2.41%,70.2 ± 9.45%,71.1 ± 8.61%,87.2 ± 19.8%,79.7 ± 7.48%,84.3 ± 13.2%,80.4 ± 24.1%,
"CCOC(=O)Nc1ccc(NCc2ccc(C)cc2)cc1N [JG-32-3, Ethyl (2-amino-4-((4-methylbenzyl)amino)phenyl)carbamate]",62.6 ± 16.7%,79.54 ± 0.6%,77.9 ± 1.34%,71.33 ± 0.03%,110 ± 39.4%,136 ± 30.1%,123 ± 23.2%,98 ± 22.9%,protective activity in WT PC12 etoposide assay [2]: significant increase in potency
"COC(=O)Nc1ccc(NCc2ccc(F)cc2)nc1N [NK-3-1, Methyl 6-(4-fluorobenzylamino)-2-aminopyridin-3-ylcarbamate]",76.9 ± 10.2%,79.1 ± 8.28%,72.2 ± 9.15%,72.3 ± 16.4%,74.5 ± 33.1%,96.6 ± 14.6%,82.2 ± 23.4%,63.3 ± 27.4%,
"CC(C)COC(=O)Nc1ccc(NCc2ccc(F)cc2)nc1N [NK-8-1, Isobutyl 6-(4-fluorobenzylamino)-2-aminopyridin-3-ylcarbamate]",67.9 ± 12.6%,77.4 ± 11.7%,89.7 ± 6.68%,88.3 ± 10.8%,57.9 ± 22.4%,62.9 ± 2.98%,46.5 ± 3.36%,56.1 ± 0.67%,
"Nc1nc(NCc2ccc(F)cc2)ccc1NC(=O)OCc1ccccc1 [NK-10-1, Benzyl 6-(4-fluorobenzylamino)-2-aminopyridin-3-ylcarbamate]",93.4 ± 12.4%,90.4 ± 11.2%,92.7 ± 12.8%,96.1 ± 15.3%,60.1 ± 7.91%,82 ± 4.43%,66.2 ± 6.26%,57.4 ± 2.24%,protective activity [3]: greater activity than flupirtine; protective activity [4]: greater activity than flupirtine; amelioration of reactive oxygen species (ROS) [5]: no amelioration of reactive oxygen species (ROS); protective activity in WT PC12 etoposide assay [2]: greater neuroprotective activity
"CCOC(=O)Nc1ccc(NCc2cccc(C(F)(F)F)c2)nc1N [NK-16-3, Ethyl 6-(3-(trifluoromethyl)benzylamino)-2-aminopyridin-3-ylcarbamate]",83.6 ± 14.3%,80.7 ± 8.11%,86.9 ± 9.07%,84.2 ± 16.1%,59.9 ± 13.8%,68.2 ± 7.5%,60.4 ± 19.4%,46.4 ± 12.8%,
"COC(=O)Nc1ccc(NCc2cccc(C(F)(F)F)c2)nc1N [NK-16-4, Methyl 6-(3-(trifluoromethyl)benzylamino)-2-aminopyridin-3-ylcarbamate]",92.1 ± 10.2%,88 ± 8.56%,97.8 ± 9.35%,97.6 ± 1800%,46.7 ± 3.26%,41.3 ± 10.1%,28.6 ± 2.14%,37 ± 3.91%,
"C=CCOC(=O)Nc1ccc(NCc2cccc(C(F)(F)F)c2)nc1N [NK-16-6, Allyl 6-(3-(trifluoromethyl)benzylamino)-2-aminopyridin-3-ylcarbamate]",77.1 ± 12.1%,87.8 ± 10%,92 ± 13%,74.5 ± 11.9%,78 ± 37.1%,107 ± 2.3%,101 ± 9.58%,87.6 ± 21.9%,protective activity in WT PC12 etoposide assay [2]: provides greater activity
"CCOC(=O)Nc1ccc(NCc2cc(C(F)(F)F)cc(C(F)(F)F)c2)nc1N [NK-17-3, Ethyl (2-amino-6-((3,5-bis(trifluoromethyl)benzyl)amino)pyridin-3-yl)carbamate]",81.8 ± 8.69%,72.8 ± 12.4%,78.5 ± 6.27%,57.9 ± 9.54%,63.7 ± 22.7%,75.7 ± 6.39%,68.1 ± 9.52%,56 ± 6.26%,
"CC(Cl)OC(=O)Nc1ccc(NCc2ccc(F)cc2)nc1N (centres unmarked) [NK-21-1, 1-chloroethyl 6-(4-fluorobenzylamino)-2-aminopyridin-3-ylcarbamate]",74.2 ± 11.5%,75.6 ± 13.4%,91.7 ± 6.31%,84 ± 13.8%,69.5 ± 13.2%,88.9 ± 21.5%,84.3 ± 32.2%,84.8 ± 33.7%,
Nc1ccc(N(Cc2ccc(F)cc2)C(=O)OCc2ccccc2)cc1N [NK-22-6],68.1 ± 8.86%,82.5 ± 10.5%,74.5 ± 8.48%,37.4 ± 4.98%,69.1 ± 20.1%,100 ± 5.4%,98.9 ± 7.93%,78.6 ± 23%,
"CCOC(=O)Nc1ccc(NCc2ccc(F)cc2)cc1N [NK-22-13, Ethyl (2-amino-4-((4-fluorobenzyl)amino)phenyl)carbamate, reference compound]",,,,,,,,,"amelioration of reactive oxygen species (ROS) [5]: do ameliorate ROS; viability at 1 µM [1, 18]: 75.9 ± 15%; viability at 3 µM [1, 19]: 77.9 ± 22.6%; viability at 10 µM [1, 20]: 85.8 ± 17.9%; viability at 30 µM [1, 21]: 76.2 ± 25%; viability at 1 µM [2, 18]: 58.3 ± 2.86%; viability at 3 µM [2, 19]: 73.9 ± 13.9%; viability at 10 µM [2, 20]: 66.3 ± 17.6%; viability at 30 µM [2, 21]: 52.1 ± 7.62%"
"CCCOC(=O)Nc1ccc(NCc2ccc(F)cc2)cc1N [NK-30-2, Propyl (2-amino-4-((4-fluorobenzyl)amino)phenyl)carbamate]",70.4 ± 3.39%,78.3 ± 7.18%,84.6 ± 4.75%,76.2 ± 1.61%,54.1 ± 9.34%,55.6 ± 7.41%,61.6 ± 4.82%,61.6 ± 18.1%,
Ethyl (6-((4-fluorobenzyl)amino)-4-methylpyridin-3-yl)carbamate [NK-48-3],,,,,,,,,"% Viability 0.1 μM [2, 22]: 54.78 ± 2.77%; % Viability 0.3 μM [2, 22]: 57.46 ± 4.02%; % Viability 1 μM [2, 6]: 57.03 ± 1.81%; % Viability 3 μM [2, 7]: 53.80 ± 1.98%; % Viability 10 μM [2, 8]: 57.06 ± 4.28%; % Viability 30 μM [2, 9]: 63.25 ± 3.32%"
Hexyl (2-amino-6-((4-fluorobenzyl)amino)pyridin-3-yl)carbamate [NK-42-1],,,,,,,,,"% Viability 0.1 μM [2, 22]: 60.08 ± 3.34%; % Viability 0.3 μM [2, 22]: 59.19 ± 4.95%; % Viability 1 μM [2, 6]: 87.30 ± 18.26%; % Viability 3 μM [2, 7]: 78.46 ± 11.29%; % Viability 10 μM [2, 8]: 85.14 ± 11.29%; % Viability 30 μM [2, 9]: 78.95 ± 13.17%"
